Data reported in ChEMBL document CHEMBL2203104, “Recent advances in antitubercular natural products” (Eur J Med Chem, 2012).
≈ marks a conversion by molar mass, not a printed value.

How the values were obtained:
[1] = test system: Mycobacterium tuberculosis; experiment: Antimycobacterial activity against Mycobacterium tuberculosis; format: functional
[2] = test system: Mycobacterium tuberculosis; experiment: Antimycobacterial activity against Mycobacterium tuberculosis 90-221387; format: functional
Vero = experiment: Cytotoxicity against african green monkey Vero cells; format: cell-based; conditions: Chlorocebus sabaeus
[3] = test system: Mycobacterium tuberculosis; experiment: Antimycobacterial activity against Mycobacterium tuberculosis H37Ra; format: functional
[4] = Selectivity index, ratio of IC50 for african green monkey Vero cells to MIC for Mycobacterium tuberculosis H37Ra; format: functional
[5] = test system: Mycobacterium tuberculosis; experiment: Antimycobacterial activity against Mycobacterium tuberculosis isolate CIBIN/UMF 15:19; format: functional
[6] = test system: Mycobacterium tuberculosis; experiment: Antimycobacterial activity against Mycobacterium tuberculosis H37Rv ATCC 27294; format: functional
[7] = test system: Mycobacterium tuberculosis; experiment: Antimycobacterial activity against Mycobacterium tuberculosis H37Rv; format: functional
[8] = Selectivity index, ratio of IC50 for african green monkey Vero cells to MIC for Mycobacterium tuberculosis H37Rv; format: functional
[9] = test system: Mycobacterium tuberculosis; experiment: Antimycobacterial activity against Mycobacterium tuberculosis at 128 ug/mL; format: functional; conditions: read-out: GI
[10] = Inhibition of Mycobacterium tuberculosis RNA polymerase
[11] = Mycobacterium tuberculosis, H37Rv, read-out: MIC

COc1cc(O[C@@H]2O[C@H](CO)[C@@H](O)[C@H](O)[C@H]2O)c2c(O)c(C(C)=O)c(C)cc2c1
MIC [1]: 8.9 µM

COc1cc([C@H]2O[C@@]3(c4cc(OC)c5c(c4)OCO5)O[C@@]3(C)[C@@H]2C)cc(OC)c1OC
MIC [2]: 30 µg/mL (≈ 69.7 µM)

COc1cc([C@H]2O[C@@]3(c4cc(OC)c(OC)c(OC)c4)O[C@@]3(C)[C@@H]2C)cc(OC)c1OC
MIC [2]: 40 µg/mL (≈ 89.6 µM)

COc1c(O)cc2c(c1CC=C(C)C)C(=O)c1c(cc(OS(=O)(=O)O)c(CC=C(C)C)c1O)C2
MIC [1]: 6.75 µM

CC(=O)c1c(C)cc2cccc(O[C@@H]3O[C@H](CO)[C@@H](O)[C@H](O)[C@H]3O)c2c1O
MIC [1]: 26.6 µM

CC(=O)OC[C@H]1O[C@@H](Oc2cccc3c2C(=O)c2c(O)cc(C)cc2C3=O)[C@H](O)[C@@H](O)[C@@H]1O
MIC [1]: 4.1 µM

COC1=CC(=O)c2c(cc(OC)c(C(C)OC(C)=O)c2O)C1=O (stereo unspecified)
IC50 (Vero): 0.33 µg/mL | MIC [3]: 0.39 µg/mL | Selectivity Index [4]: <1

CCCOC(=O)[C@]12CC[C@@]3(C)C[C@H]4O[C@@]4(C)[C@H]4O[C@H]4[C@H]3[C@@H]1CC[C@@H]2C(C)C
MIC [5]: 6.25 µg/mL (≈ 16.6 µM) | MIC [6]: 6.25 µg/mL (≈ 16.6 µM)

CCCCOC(=O)[C@]12CC[C@@]3(C)C[C@H]4O[C@@]4(C)[C@H]4O[C@H]4[C@H]3[C@@H]1CC[C@@H]2C(C)C
MIC [5]: 6.25 µg/mL (≈ 16 µM) | MIC [6]: 6.25 µg/mL (≈ 16 µM)

COc1ccc(C(=O)OC2=C(C(C)C)C(=O)C3=C(C2=O)[C@@]2(C)CCCC(C)(C)[C@@H]2[C@H](O)[C@H]3OC(C)=O)cc1
IC50 (Vero): 2.58 µg/mL | MIC [7, 11]: 3.12 µg/mL

CCCCCCC[C@@H]1C[C@@H]2CCC3=C(C(=O)OCCCCCCC[C@@H]4C[C@@H]5CC[C@@H]6C[C@H](C)NC(=N4)N65)C(C)N=C(N1)N32 (stereo partly specified)
MIC [6]: 28.5 µg/mL (≈ 47.9 µM)

CCCCCCC[C@H]1C[C@H]2CCC3=C(C(=O)OCCCCNC(=N)N)C(CCCCC)N=C(N1)N32 (stereo partly specified)
MIC [6]: 34.7 µg/mL (≈ 71 µM)

CCCCCCC[C@H]1C[C@H]2CCC3=C(C(=O)OCCCCNC(=N)N)C(CCCCC)=NC(=N1)N32
MIC [6]: 37.7 µg/mL (≈ 77.5 µM)

CCC1C=CCC[C@@]2(C[C@@H]3CC[C@@H]4[C@H](C(=O)OCCCCCCCCCCCCCCCC(=O)N(CCCN)C[C@@H](O)CCN)[C@]5(CCC[C@@H](C)O5)NC(=N2)N34)O1 (stereo partly specified)
MIC [6]: 46.5 µg/mL (≈ 58 µM)

CC(=O)OC[C@@]12CC[C@]3(C)[C@@H](C(C)C)CC[C@H]3[C@@]13C[C@H]3[C@](C)(O)CC2
MIC [5]: 12.5 µg/mL (≈ 35.9 µM) | MIC [6]: 12.5 µg/mL (≈ 35.9 µM)

CCCOC(=O)[C@]12CC[C@@]3(C)CC[C@@](C)(O)C=C[C@H]3[C@@H]1CC[C@@H]2C(C)C
MIC [5]: 6.25 µg/mL (≈ 17.2 µM) | MIC [6]: 6.25 µg/mL (≈ 17.2 µM)

C/C(=C\CO)CCCC(C)CCCC(C)CCCC(C)C (stereo unspecified)
MIC [6]: 1.56 µg/mL (≈ 5.26 µM)

CC(C)[C@]12C=C3CC[C@H]4[C@](C)(C(=O)O)CCC[C@]4(C)[C@]3(CC1)OO2
MIC [1]: 50 µg/mL

CC(C)(O)c1ccc2c(c1)CC[C@H]1[C@](C)(C(=O)O)CCC[C@]21C
MIC [1]: 50 µg/mL

C[C@@H]1C[C@H](C)C(=O)/C=C/C2[C@@H](O)C3OC4=C(C(=O)O[C@@]42C[C@H]3C)C1=O (stereo in doubt; 208)
MIC [1]: 8.3 µg/mL | MIC [7]: 3.6 µM

O=C(CCCCCCCCCCCC[C@H]1C=CCC1)OCC(O)CO (stereo partly specified) [ANTHELMINTHICINS C]
MIC [1]: 11.3 µM | MIC [7, 11]: 4.38 µM

O=C1c2cccnc2-c2nccc3c2c1nc1ccccc13 [ASCIDIDEMIN]
IC50 (Vero): 0.14 µM | MIC [7, 11]: 0.35 µM | Selectivity Index [8]: <1

CC(=O)O[C@H]1C[C@]2(C)[C@@H](C(C)C)CC[C@H]2[C@]23C[C@H]2[C@](C)(O)CC[C@]13C [AZORELLANOL]
MIC [5]: 12.5 µg/mL (≈ 35.9 µM) | MIC [6]: 12.5 µg/mL (≈ 35.9 µM)

CC(C)[C@H]1CC[C@@H]2[C@]1(C)CC(=O)[C@@]1(C)CC[C@@](C)(O)[C@@H]3C[C@@]231 [AZORELLANONE]
MIC [5]: 12.5 µg/mL (≈ 41.1 µM) | MIC [6]: 12.5 µg/mL (≈ 41.1 µM)

CCCCCCCCC[C@@H]1C[C@@H]2CC[C@H]3[C@@H](C(=O)OC(C)CCCCCCC[C@@H]4C[C@@H]5CC[C@@H]6C[C@H](C)NC(=N4)N65)[C@@H](C)N=C(N1)N23 (stereo partly specified) [BATZELLADINE L]
MIC [6]: 1.68 µg/mL (≈ 2.57 µM)

CCCCCCC[C@@H]1C[C@@H]2CCC3=C(C(=O)OC(C)CCCCCCC[C@@H]4C[C@@H]5CC[C@@H]6C[C@H](C)NC(=N4)N65)C(C)N=C(N1)N32 (stereo partly specified) [BATZELLADINE N]
MIC [6]: 3.18 µg/mL (≈ 5.1 µM)

COc1cc([C@H]2O[C@@H](c3cc(OC)c4c(c3)OCO4)[C@@H](C)[C@@H]2C)cc(OC)c1OC [BEILSCHMIN A]
MIC [2]: 2.5 µg/mL (≈ 6 µM)

COc1cc([C@H]2O[C@@H](c3cc(OC)c(OC)c(OC)c3)[C@@H](C)[C@@H]2C)cc(OC)c1OC [BEILSCHMIN B]
MIC [2]: 7.5 µg/mL (≈ 17.3 µM)

COc1cc([C@H]2O[C@@]3(c4cc(OC)c5c(c4)OCO5)O[C@@]3(C)[C@@H]2C)cc2c1OCO2 [BEILSCHMIN D]
MIC [2]: 50 µg/mL (≈ 121 µM)

C=C(C)[C@H]1CC[C@@H]2C(=O)O[C@H]3[C@@H]2O[C@@]2(O[C@@H]1C(=O)[C@@]1(C)O[C@@H]21)[C@@H]3C(=C)C [BIPINNAPTEROLIDE B]
inhibition of growth at 128 µg/mL [9]: 66%

C=C(C)[C@@H]1CCC2=C[C@@H](OC2=O)C2=C(C)C[C@](O)(C2=O)[C@H](C)[C@@H](O)C1=O [CORALLOLIDE B]
inhibition of growth at 128 µg/mL [9]: 95%

C/C=C/C/C=C(\C)C(O)CC/C(C)=C/C=C(\C)C(=O)c1c(O)cc([C@H](C)CC/C=C/NC(=O)OC)oc1=O (stereo partly specified) [CORALLOPYRONIN A]
IC50 [10]: 4 µM

CC(C)[C@@H](C)/C=C/[C@@H](C)[C@H]1CC[C@@H]2[C@]1(C)CC[C@H]1[C@]23C=C[C@]2(C[C@@H](O)CC[C@]12C)OO3 [ERGOSTEROL PEROXIDE]
MIC [7, 11]: 3.5 µM | Selectivity Index [8]: >57

C#C[C@@]12O[C@]1(C=O)[C@]1(C)CC[C@H]3C(C)(C)CCC[C@]3(C)[C@H]1CC2=O [ESCOBARINE A]
MIC [5]: 12.5 µg/mL (≈ 38.1 µM) | MIC [6]: 25 µg/mL (≈ 76.1 µM)

C#C[C@@]12O[C@]1(CO)[C@]1(C)CC[C@H]3C(C)(C)CCC[C@]3(C)[C@H]1CC2=O [ESCOBARINE B]
MIC [5]: 50 µg/mL (≈ 151 µM) | MIC [6]: 50 µg/mL (≈ 151 µM)

CC[C@@H](CO)NCCN[C@@H](CC)CO [ETHAMBUTOL]
MIC [2]: 6.2 µg/mL (≈ 30.3 µM)

C=C[C@@]1(C)[C@H](Cl)C[C@@H]2C(C)(C)c3cccc4[nH]c5c(c34)[C@@]2(O)[C@]1(C#N)[C@@]1(CO1)C5(C)C [FISCHAMBIGUINE B]
IC50 (Vero): 128 µM | MIC [7, 11]: 2 µM | Selectivity Index [8]: 64

O=C1c2ccccc2-c2c3c(cc4ccnc1c24)OCO3 [LIRIODENINE]
MIC [1]: 12.5 µg/mL

COc1c(O)cc2oc3cc(O)c(CC=C(C)C)c(O)c3c(=O)c2c1CC=C(C)C [MANGOSTIN]
MIC [1]: 15.2 µg/mL

CC(C)[C@H]1CC[C@H]2[C@@H]3C=C[C@](C)(O)CC[C@]3(C)CC[C@]12CO [MULINOL]
MIC [5]: 12.5 µg/mL (≈ 40.8 µM) | MIC [6]: 12.5 µg/mL (≈ 40.8 µM)

CCC/C(C)=C/C=C(\C)C(=O)c1c(O)cc([C@H](C)CC/C=C/NC(=O)OC)oc1=O [MYXOPORIN A]
IC50 [10]: 1 µM

CC1COc2c(N3CCN(C)CC3)c(F)cc3c(=O)c(C(=O)O)cn1c23 (stereo unspecified) [OFLOXACIN]
MIC [5]: 0.125 µg/mL (≈ 0.346 µM) | MIC [6]: 0.125 µg/mL (≈ 0.346 µM)

COc1cccc2c1C(=O)c1nccc3cc4c(c-2c13)OCO4 [OXOSTEPHANINE]
MIC [1]: 50 µg/mL

C=C(CC[C@@H](C)[C@H]1CC[C@H]2[C@@H]3C(C=O)=C4C[C@@H](O)CC[C@]4(C)[C@H]3CC[C@]12C)C(C)C [PARGUESTEROL A]
IC50 (Vero): 52 µg/mL | MIC [7, 11]: 7.8 µg/mL | Selectivity Index [8]: <7

C=C(CC[C@@H](C)[C@H]1CC[C@H]2[C@@H]3C(C=O)[C@]4(O)C[C@@H](O)CC[C@]4(C)[C@H]3CC[C@]12C)C(C)C (stereo partly specified) [PARGUESTEROL B]
IC50 (Vero): 52 µg/mL | MIC [7, 11]: 11.2 µg/mL | Selectivity Index [8]: <7

CC(C)C(O)C(=O)N/C=C\C=C/NC(=O)C(O)C(C)C (stereo unspecified) [PHOMOENAMIDE]
MIC [1]: 6.25 µg/mL

C=C[C@@]1(C)C=C2CC[C@@H]3[C@](C)(CCC[C@@]3(C)C(=O)O)[C@H]2CC1 [PIMARIC ACID]
MIC [1]: 50 µg/mL

Cc1cc(O)cc2c1C[C@@H]1C[C@@H](O)[C@]3(C)Oc4cc(O)cc(C)c4C[C@@H]3CC(C)(C)/C=C/C[C@@]1(C)C2 [RAMIFERIN]
IC50 (Vero): 9.7 µM | MIC [3]: 12.7 µM | Selectivity Index [4]: 0.7

C/C(=C\Cc1ccccc1)CC[C@@]1(O)C[C@H]2C[C@@H](C/C(C)=C/C/C=C/C/C(CC(=O)O)=C\C(=O)O2)O1 [RIPOSTATIN A]
IC50 [10]: 0.8 µM

C/C=C/C(=O)OC[C@H]1O[C@@H](Oc2cccc3cc(C)c(C(C)=O)c(O)c23)[C@H](O)[C@@H](O)[C@@H]1O [RUMEXNEPOSIDE A]
MIC [1]: 20.7 µM

CSCCC(NC(=O)NC(Cc1c[nH]c2ccccc12)C(=O)O)C(=O)NC(C(=O)N/C=C1\C[C@@H](O)[C@H](n2ccc(=O)[nH]c2=O)O1)C(C)N(C)C(=O)C(N)Cc1cccc(O)c1 (stereo partly specified) [SANSANMYCIN A]
MIC [6]: 16 µg/mL (≈ 18.5 µM)

CSCCC(NC(=O)NC(Cc1c[nH]c2ccccc12)C(=O)O)C(=O)NC(C(=O)N/C=C1\C[C@@H](O)[C@H](n2ccc(=O)[nH]c2=O)O1)C(C)N(C)C(=O)C1Cc2cc(O)ccc2C(C)(C)N1 (stereo partly specified) [SANSANMYCIN F]
MIC [6]: 16 µg/mL (≈ 17.7 µM)

CC(C)CC(NC(=O)NC(Cc1c[nH]c2ccccc12)C(=O)O)C(=O)NC(C(=O)N/C=C1\C[C@@H](O)[C@H](n2ccc(=O)[nH]c2=O)O1)C(C)N(C)C(=O)C1Cc2cc(O)ccc2C(C)(C)N1 (stereo partly specified) [SANSANMYCIN G]
MIC [6]: 16 µg/mL (≈ 18.1 µM)

CC(C)=CCC/C(C)=C/CC/C(C)=C/CC/C=C(\C)CC/C=C(\C)CCC=C(C)C [SQUALENE]
MIC [2]: 28 µg/mL (≈ 68.2 µM)

COc1cc(O)c2c(O)c(C(C)=O)c(C)cc2c1 [TORACHRYSONE]
MIC [1]: 6.1 µM
